{
  "source": "patent US10000380B2",
  "about": "“Method for the manufacture of polymeric sulfur” (EASTMAN CHEMICAL COMPANY, priority 2016, dated 2018)",
  "assay": "Solubility of cyclooctasulfur, cyclododecasulfur and crystalline polymeric sulfur in carbon disulfide, chlorobenzene and para-xylene (supernatant sulfur content by Uniquant)",
  "assay_type": "physicochemical",
  "experimental": "Samples were also analyzed using X-ray fluorescence and the UniQuant software package. UniQuant (UQ) is an x-ray fluorescence (XRF) analysis tool that affords standardless XRF analysis of samples. Samples can then be semi-quantitatively analyzed for up to 72 elements beginning with row three in the periodic table (i.e. Na to higher Z). The data are mathematically corrected for matrix differences between calibration standards and samples as well as absorption and enhancement effects; i.e. inter-element effects. Some factors that can affect the quality of results include granularity in the sample (leading to shadow effects), mineralogical effects (due to sample inhomogeneity), insufficient sample size, and lack of knowledge of the sample matrix. In cases where a sample was amenable to both, the XRF UQ analysis and the ICP-OES (i.e. quantitative) analysis generally agree within +/−10%. Samples were analyzed for Zn, Br, Cl, and S content by UQ.\nFifty grams of p-xylene was added to each of three identical 100-milliliter jacketed glass vessels fitted with a circulating heating bath, cooling water condenser, magnetic stir bar and stir plate, and nitrogen purge. All vessels were heated to the desired temperature, and cyclooctasulfur, cyclododecasulfur (prepared as in Example 2), and unoiled commercial crystalline polymeric sulfur (Crystex™) was added in sufficient quantities to each of the glass vessels to allow undissolved solids to remain after dissolution and equilibration of the mixture. The equilibration period typically lasted 2 to 8 hours, during which the contents of the vessel were maintained at the desired temperature and stirred continuously. Upon equilibration, supernatant liquid was withdrawn from the vessels via a heated fritted glass pipette (heated to the same temperature as the solution). The supernatants were analyzed by Uniquant to determine sulfur content, indicating the solubility of the sulfur species at the vessel temperature. Similar experiments were conducted for carbon disulfide and chlorobenzene for each of the three solutes.",
  "data": [
    {"smiles": "S1SSSSSSSSSSS1", "note": "[Cyclododecasulfur, cyclododecasulfur]", "values": [
      {"measurement": "Solubility relative to polymeric sulfur", "setting": "in p-xylene, chlorobenzene and CS2", "value": "at least an order of magnitude more soluble"},
      {"measurement": "Solubility in weight % of solute in solvent", "setting": "solvent CS2, 22 °C", "value": 0.2, "unit": "wt %"},
      {"measurement": "Solubility in weight % of solute in solvent", "setting": "solvent CS2, 45 °C", "value": 0.5, "unit": "wt %"},
      {"measurement": "Solubility in weight % of solute in solvent", "setting": "solvent chlorobenzene, 45 °C", "value": 0.015, "unit": "wt %"},
      {"measurement": "Solubility in weight % of solute in solvent", "setting": "solvent chlorobenzene, 115 °C", "value": 0.44, "unit": "wt %"},
      {"measurement": "Solubility in weight % of solute in solvent", "setting": "solvent p-xylene, 45 °C", "value": "<0.05", "unit": "wt %"},
      {"measurement": "Solubility in weight % of solute in solvent", "setting": "solvent p-xylene, 115 °C", "value": 0.4, "unit": "wt %"}
    ]},
    {"smiles": "S1SSSSSSS1", "note": "[Cyclooctasulfur, cyclooctasulfur]", "values": [
      {"measurement": "Solubility relative to cyclododecasulfur", "setting": "in p-xylene, chlorobenzene and CS2, depending on temperature", "value": "30 to 200", "unit": "times"},
      {"measurement": "Solubility in weight % of solute in solvent", "setting": "solvent CS2, 22 °C", "value": 32, "unit": "wt %"},
      {"measurement": "Solubility in weight % of solute in solvent", "setting": "solvent CS2, 45 °C", "value": 48, "unit": "wt %"},
      {"measurement": "Solubility in weight % of solute in solvent", "setting": "solvent chlorobenzene, 22 °C", "value": 2.4, "unit": "wt %"},
      {"measurement": "Solubility in weight % of solute in solvent", "setting": "solvent chlorobenzene, 45 °C", "value": 6.2, "unit": "wt %"},
      {"measurement": "Solubility in weight % of solute in solvent", "setting": "solvent chlorobenzene, 115 °C", "value": 21.7, "unit": "wt %"},
      {"measurement": "Solubility in weight % of solute in solvent", "setting": "solvent p-xylene, 22 °C", "value": 2.3, "unit": "wt %"},
      {"measurement": "Solubility in weight % of solute in solvent", "setting": "solvent p-xylene, 45 °C", "value": 5.6, "unit": "wt %"},
      {"measurement": "Solubility in weight % of solute in solvent", "setting": "solvent p-xylene, 115 °C", "value": 18.7, "unit": "wt %"}
    ]}
  ]
}
